The values that follow come from patent publication US7212853B1 (priority 1996, dated 2007).

Structures are written as SMILES.

The nature of this data set: Transdermal electrotransport delivery of goserelin at current densities of 50 and 100 μA/cm^2 (Example 3). Type of data set: in vivo, human. Particulars: for average transdermal goserelin flux: 8 hours, 12 volunteers. As to the method:
This study was undertaken to evaluate the relationship between current density and drug flux in the transdermal electrotransport delivery of goserelin. The study involved the application of electrotransport devices, applying constant current, to 12 normal male volunteers for a duration of 8 hours.
The two electrotransport treatment regimens in this study differed only in applied current density levels. The electrotransport devices delivered goserelin through the skin from polyvinyl alcohol (PVOH)-based donor hydrogels having a skin-contact surface area of 4 cm^2. The gels contained an aqueous goserelin solution. The current density levels used in this study were 50 and 100 μA/cm^2. After an 8 hour treatment period, the electrotransport devices were removed. The skin site was then washed to remove any residual goserelin. All 12 volunteers received each treatment seven days apart.
For each treatment, seven blood samples were taken over a 24 hour period commencing with the application of current from the electrotransport devices. Serum goserelin concentrations from each patient were used to calculate mean drug flux and the mean total amount of drug delivered.

Take `CC(C)C[C@H](NC(=O)[C@@H](COC(C)(C)C)NC(=O)[C@H](Cc1ccc(O)cc1)NC(=O)[C@H](CO)NC(=O)[C@H](Cc1c[nH]c2ccccc12)NC(=O)[C@H](Cc1cnc[nH]1)NC(=O)[C@@H]1CCC(=O)N1)C(=O)N[C@@H](CCCNC(=N)N)C(=O)N1CCC[C@H]1C(=O)NNC(N)=O` [goserelin]: the “average transdermal goserelin flux” value was found to be 5.8 µg/h (50 μA/cm^2, constant current) and 21.6 µg/h (100 μA/cm^2, constant current). Moreover, under “current density rises from 50 to 100 μA/cm^2”, the “increase in drug flux” value is listed as “four”.
